Measurements: patent US20250134862A1, “PROCESS FOR TREATING LIVESTOCK EXPOSED TO TOXIC FORAGE USING MELATONIN COMPOSITIONS” (BOARD OF TRUSTEES OF THE UNIVERSITY OF ARKANSAS, priority 2022, published 2025)

Columns and labels:
[1] = test system: beef cows that grazed toxic, endophyte-infected tall fescue (E+) during gestation; experiment: Example 3: estimated daily milk volume and weight from four-hour milk yields; format: in vivo, cattle; conditions: d 56, P<0.03
Source text: The same artificially inseminated cows were used in Example 3 that were used Example 2. As outlined above in Example 2, forty-nine (n=49) multiparous crossbred beef cows were artificially inseminated with sex-sorted semen (Y chromosome-bearing sperm) from a single Angus sire and maintained on pastures free from E+ fescue prior to the start of the treatment period. Pregnant cows were stratified into three treatment groups based on body weight, with two replications per treatment: non-toxic, novel endophyte-infected (NE+) tall fescue without melatonin supplementation (NE+/NM; n=15), E+ fescue with melatonin supplementation (E+/M; n=16), and E+ fescue without melatonin supplementation (E+/NM; n=18). The treatment period was over 70 d between May and July (d 147±1 to 217-1 of gestation). […]
After birth, calves were castrated within 48-72 hours. […] Protein, lactose, and triglycerides were evaluated in milk samples collected on d 28 and d 56.
(§1) Dam body weight (FIG. 32) and calf body weight (FIG. 34) were analyzed, using the MIXED procedure of SAS specific for repeated measures with treatment and time as fixed effects and replicate as a random effect. Dam prolactin, calf birth weight (FIG. 33), milk volume (FIGS. 35 and 37), and milk weight (FIGS. 36 and 38) were analyzed using the MIXED procedure of SAS with treatment as a fixed effect and replicate as a random effect.

[2] = test system: pregnant beef cattle grazing toxic, endophyte-infected (E+) tall fescue; experiment: Example 2: color Doppler ultrasound of uterine and coccygeal artery hemodynamics; format: in vivo
Source text: (§2) Multiparous crossbred cows were artificially inseminated with sex-sorted semen (Y chromosome-bearing sperm) from a single Angus sire and maintained on pastures free from E+ fescue prior to the start of the treatment period. Pregnant cows […] were assigned to one of three treatment groups based on body weight, with two replications per treatment: non-toxic, novel endophyte-infected (NE+) fescue without melatonin supplementation (NE+/NM; […]), E+ fescue with melatonin supplementation (E+/M; n=16), and E+ fescue without melatonin supplementation (E+/NM; n=18). Treatments were administered over a 70-d period between May and July (d 147±1 to 217±1 of gestation). A commercially available feed was mixed with or without melatonin [100 μg/kg body weight (BW)] and hand-fed daily.
Cows were weighed every fourteen (14) days relative to the start of the 70-d treatment period (FIG. 16-17): i.e., at d 0, 14, 28, 42, 56, and 70. Measurements of plasma prolactin were obtained on d 70 of the treatment period by radioimmunoassay (FIG. 18). Color Doppler ultrasound of the uterine and coccygeal artery was conducted at d 68±1 of the treatment period. Cardiac cycle waveforms from three independent ultrasound scans were used to determine the following uterine artery measures (FIGS. 19-25) and coccygeal artery measures (FIGS. 26-30): diameter (cm), pulsatility index (PI), resistance index (RI), blood flow (BF; mL/min; equal to MnV*vessel area*60 s), and blood flow as a proportion of BW (BF/BW).
(§3) After the treatment period, cattle were maintained together as a single group on pastures that were free from E+ fescue. Body weights were analyzed using the MIXED procedure of SAS specific for repeated measures with treatment, time, and the interaction as fixed effects and replicate as random. Arterial hemodynamics and prolactin measures were analyzed using the MIXED procedure of SAS with treatment as a fixed effect and replicate as a random effect. Ultrasonography day and order were tested as covariates and removed from the model (P<0.05).

[3] = test system: steer calves of pregnant beef cattle grazing toxic, endophyte-infected tall fescue (E+); experiment: Example 3: body weight of steer calves born to dams grazing E+ fescue with melatonin supplementation; format: in vivo; conditions: for Calf weight: raw group average
Source text: The same artificially inseminated cows were used in Example 3 that were used Example 2. As outlined above in Example 2, forty-nine (n=49) multiparous crossbred beef cows were artificially inseminated with sex-sorted semen (Y chromosome-bearing sperm) from a single Angus sire and maintained on pastures free from E+ fescue prior to the start of the treatment period. Pregnant cows were stratified into three treatment groups based on body weight, with two replications per treatment: non-toxic, novel endophyte-infected (NE+) tall fescue without melatonin supplementation (NE+/NM; n=15), E+ fescue with melatonin supplementation (E+/M; n=16), and E+ fescue without melatonin supplementation (E+/NM; n=18). The treatment period was over 70 d between May and July (d 147±1 to 217-1 of gestation). A commercially available feed was mixed with melatonin (100 μg/kg BW) or without melatonin and hand-fed to each cow daily. At the conclusion of the treatment period (56±18 d before parturition), cattle were moved to a single group and maintained on pastures free from E+ fescue, where they remained through weaning.
After birth, calves were castrated within 48-72 hours. Dams and steer calves were weighed every 28 days relative to calving (FIG. 31): i.e., at d 0, 28, 56, 84, 112, 140, and 168 (d 0=calving, <24 h). Table 3 depicts calf weight at preweaning, postweaning, and feedlot for NE+/NM, E/+M, and E/+NM (respectively, green, yellow, and red in FIG. 34B). Four-hour milk yields on d 28±3 and d 56±3 were used to estimate daily milk volume and weight. Protein, lactose, and triglycerides were evaluated in milk samples collected on d 28 and d 56.
as §1

[4] = test system: pregnant beef cattle grazing toxic, endophyte-infected (E+) tall fescue; experiment: Example 2: plasma prolactin by radioimmunoassay on d 70 of the treatment period; format: in vivo; conditions: cows on E+ fescue with melatonin 100 μg/kg BW, d 70 of treatment
Source text: as §2
Cows were weighed every fourteen (14) days relative to the start of the 70-d treatment period (FIG. 16-17): i.e., at d 0, 14, 28, 42, 56, and 70. […]
as §3, with “Ultrasonography day and order were tested as covariates and removed from the model (P<0.05).” left out

[5] = test system: offspring of dams that consumed endophyte-infected (E+) tall fescue seed; experiment: Example 1: body composition (carcass) ultrasonography of calves at weaning; format: in vivo, cattle
Source text: (§4) After the training period, the heifers started a 70-day feeding trial (FIG. 2) to evaluate the influence of toxic fescue and melatonin on the developing fetus. To mimic the natural peak of ergot alkaloids in Kentucky 31 fescue, toxic fescue seed was fed with or without melatonin during the 70-day period between May and July. The feed trial period diet consisted of an ad libitum Bermuda grass hay and one of four (4) feed rations. The trial utilized a 2×2 factorial treatment arrangement (E− without melatonin, E−/NM; E− with melatonin, E−/M; E+ without melatonin, E+/NM; or E+ with melatonin, E+/M; melatonin dose: 100 μg/kg of BW) for a 70-d period between May and July starting at 160±13 days of gestation to mimic ergot alkaloid concentrations (ergot alkaloid dose: 13 μg/kg of BW) in a grazing scenario (FIG. 2). Each of the four feed ration treatments was represented in each of the two pens/groups of cattle (FIG. 1). All diets contained corn gluten and molasses and were fed using SmartFeed Pro (C-Lock Inc.) controlled feeding units between 0900 and 1400 h daily. Cattle were removed from dietary treatments 39±19 days before calving. Two replicates were housed separately in the open-air barn (FIG. 1), each with a 1.2-ha paddock. Before and following the 70-d treatment period, all cattle were maintained as a single group free from toxic fescue.
(§5) Powdered melatonin (Cayman Chemical Company) was mixed into 100% ethanol and mixed with feed (fescue seed, corn gluten, and molasses) in a concrete mixer until the feed was dry (ethanol evaporates, and melatonin remains). Melatonin was dosed at about 100 μg/kg of body weight or about 50 mg/head/day for all groups. Ad libitum Bermuda grass hay was offered in an adjacent pasture area to encourage animals to leave the barn after consuming the feed ration during both the training and the feed trial period. After completion of the feed trial, heifers were maintained on fescue-free pastures at the Physiology Farm and supplemented as needed through calving and until their calves were weaned.
Calves were weaned at 226±19 d of age. Gestation length, calf birth weight, 205-day adjusted weaning weight (205-d WW), carcass ultrasonography measures (ribeye area, REA: REA/CWT), percent intramuscular fat (IMF), rib fat thickness (UFAT), rump fat thickness (URUMP), post-weaning weights (recorded every 28 days between weaning and 84 days post-weaning), and post-weaning average daily gain (ADG) (between weaning and 84 days post-weaning) were evaluated in offspring (n=44) (FIGS. 6-13). Post-weaning calf weights were analyzed using the MIXED procedure of SAS specific for repeated measures with treatment and time as fixed effects and replicate as random. All other variables were analyzed using the MIXED procedure of SAS with treatment as a fixed effect and replicate as random with gestation length as a covariate for birth weight. Table 1 summarizes the gestation length and body weights of calves born to primiparous dams that consumed E- or E+ fescue seed with (M) or without melatonin (NM) supplementation during mid-late gestation. Data in Tables 1 and 2 are presented as LS MEANS±SEM.

[6] = test system: pregnant heifers consuming endophyte-infected (E+) tall fescue seed and their offspring; experiment: Example 1: gestation length and body weights of calves born to dams fed tall fescue seed with or without melatonin; format: in vivo, cattle
Source text: Fifty-seven (n=57) pregnant heifers artificially inseminated with sex-sorted semen (X chromosome-bearing sperm) from a single Angus sire were maintained at the Savoy Unit at the University of Arkansas on Bermuda grass pastures and supplemented as needed during the first 4-5 months of gestation. After that time, pregnant heifers were housed in a barn at the Savoy Unit (FIG. 1) having a controlled feeding system (SmartFeed Pro, C-Lock, Inc.). The controlled feeding system used radio frequency identification to control feed mixtures and intake for heifers.
as §4, §5
Calf body weight was recorded at birth, and calves were tagged for identification purposes. Blood samples were collected from calves at 12±2 days of age via jugular venipuncture (four 10 mL purple top tubes and one 4 mL purple top tube). At weaning, body weight was recorded, and blood samples were collected via jugular venipuncture (four 10 mL purple top tubes and one 4 mL purple top tube). Vaccinations were administered to calves according to normal procedures at the Savoy Unit. Heifers and calves were maintained according to standard procedures at the Savoy Unit and the Physiology Farm.
Calves were weaned at 226±19 d of age. Gestation length, calf birth weight, 205-day adjusted weaning weight (205-d WW), carcass ultrasonography measures (ribeye area, REA: REA/CWT), percent intramuscular fat (IMF), rib fat thickness (UFAT), rump fat thickness (URUMP), post-weaning weights (recorded every 28 days between weaning and 84 days post-weaning), and post-weaning average daily gain (ADG) (between weaning and 84 days post-weaning) were evaluated in offspring (n=44) (FIGS. 6-13). Post-weaning calf weights were analyzed using the MIXED procedure of SAS specific for repeated measures with treatment and time as fixed effects and replicate as random. […]

[7] = cows on E+ fescue with melatonin, d 68±1 of treatment
[8] = calves at weaning, melatonin main-effect mean, LS mean
[9] = calves, melatonin main-effect mean, dams 100 μg/kg BW for 70 d, LS mean

COc1ccc2[nH]cc(CCNC(C)=O)c2c1 [melatonin]
estimated daily milk volume relative to NE+/NM dams [1]: decreased
estimated daily milk weight relative to NE+/NM dams [1]: decreased
Coccygeal artery PI (pulsatility index) [2, 7]: 0.86±0.1
Coccygeal artery RI (resistance index) [2, 7]: 0.53±0.02
effects on uterine and coccygeal artery hemodynamics ([2]; pregnant multiparous crossbred beef cows grazing endophyte-infected tall fescue): limited effects
Calf weight ([3]; Birth): 74.43 lbs.
Calf weight ([3]; D 28): 148.07 lbs.
Calf weight ([3]; D 56): 212.07 lbs.
Calf weight ([3]; D 84): 278.46 lbs.
Calf weight ([3]; D 112): 347.15 lbs.
Calf weight ([3]; D 140): 409.15 lbs.
Calf weight ([3]; D 168): 476.77 lbs.
Calf weight ([3]; D 196): 535.31 lbs.
Calf weight ([3]; D +28 Post-Weaning): 641.23 lbs.
Calf weight ([3]; D +56 Post-Weaning): 703.69 lbs.
Calf weight ([3]; D +84 Post-Weaning): 766.62 lbs.
Calf weight ([3]; D +112 Post-Weaning): 852.92 lbs.
Calf weight ([3]; Feedlot - October 29): 1003.33 lbs.
Calf weight ([3]; Weaning): 622.31 lbs.
share of the loss in calf weight recovered by feeding melatonin ([3]; second study, 28 days prior to weaning, loss 28 lbs., statistically adjusted means): over 65%
calf weight recovered by feeding melatonin ([3]; second study, 28 days prior to weaning, multiparous cows, statistically adjusted means): approximately 19 lbs.
Prolactin (plasma) [4]: 86.9 ± 14.9 ng/mL
IMF (percent intramuscular fat) [5, 8]: 2.60%
REA (ribeye area) [5, 8]: 5.87 in.^2
UFAT (rib fat thickness) [5, 8]: 0.08 in.
URUMP (rump fat thickness) [5, 8]: 0.08 in.
ribeye area, toxic fescue seed with melatonin compared to toxic fescue seed without melatonin ([5]; fescue × melatonin interaction): increased
calf weight at weaning recovered by feeding melatonin ([6]; Example 1, first-calf heifers, statistically adjusted means): approximately 53 lbs.
share of the loss in calf weight at weaning recovered by feeding melatonin ([6]; Example 1, loss approximately 68 lbs., statistically adjusted means): over 75%
birth weight of offspring, dams receiving melatonin relative to those without ([6]; P=0.02 as printed in text): increased
205-d WW (205-day adjusted weaning weight) [6, 9]: 176.95 kg
Birth Weight [6, 9]: 25.90 kg
205-d weaning weight, toxic fescue seed with melatonin compared to toxic fescue seed without melatonin ([6]; fescue × melatonin interaction): increased
post-weaning calf weight, toxic fescue seed with melatonin compared to toxic fescue seed without melatonin ([6]; fescue × melatonin interaction): increased
Gestation Length ([6]; melatonin main-effect mean (E- and E+ diets pooled), 100 μg/kg BW in feed for 70 d mid-late gestation, LS mean): 272.00 days
